Results taken from PubChem BioAssay AID1259420 (Broad Institute, 2018).
“And” between values parts separate entries of the source, which are not always exact repeats. Identical values can stand only once. Results filed as inconclusive are left out. The source made the active and inactive calls. No rule for the calls is given here.

Tested on: Toxoplasma gondii growth in host cells, no IFN-gamma
Assay: T. gondii intracellular growth, IFN-gamma absent, dose response, cell-based (AID 1259420);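 also: host cells were HeLa; final incubation lasted 72 hours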

| SMILES | AC50 |
| --- | --- |
| Cc1ccccc1-c1ccc([C@H]2[C@@H](CO)N3CCCCN(S(=O)(=O)Cc4ccccc4)C[C@H]23)cc1 | 22.7 µM |
| COc1ccc(NC(=O)N2CC[C@@H]3[C@H]2c2cc(C4=CCCCC4)ccc2N(C)[C@H]3CO)cc1 | 17.8 µM |
| COc1cccc(NC(=O)N2CC(=O)N3[C@H](CO)[C@@H](c4ccc(C#CCC5CCCC5)cc4)[C@@H]3C2)c1 | 14.4 µM and 13.4 µM |
| COc1cccc(-c2nc3c(s2)CN(S(=O)(=O)c2ccccc2C)CC3)c1 | 34.7 µM |
| COc1ccc(-c2ccc3c(c2)[C@H]2[C@H](CCN2C(=O)c2cccc(F)c2)[C@H](CO)N3)cc1 | 14.3 µM |
| CN(C)C(=O)COC[C@@H]1CC[C@H]2[C@H](CCN2CC2CC2)O1 | > 39 µM (inactive) |
| O=C(c1cnccn1)N1CC(=O)N2[C@H](CO)[C@@H](c3ccc(-c4cccc(F)c4)cc3)[C@@H]2C1 | 20 µM |
| CN(C)C(=O)c1cccc(-c2ccc3c(c2)[C@H]2[C@H](CCN2C(=O)Cc2ccccc2)[C@H](CO)N3)c1 | 16.6 µM |
| CC(C)(O)CC(=O)NCCn1ccc2ncnc(Nc3ccc(Oc4cccc(C(F)(F)F)c4)c(Cl)c3)c21 | > 39 µM (inactive) |
| O=C(Cc1cccnc1)N1CC(=O)N2[C@H](CO)[C@@H](c3ccc(C#CC4CCCCC4)cc3)[C@H]2C1 | > 20 µM (inactive) |
| COc1ccccc1-c1ccc2c(c1)[C@@H]1[C@@H](CCN1S(=O)(=O)c1ccc(C)cc1)[C@H](CO)N2 | 12.4 µM |
| Cc1cc(C(=O)Nc2ccc3c(c2)C(=O)N(C)[C@H]2CC[C@H](CC(=O)NCc4ccc(-c5ccccc5)cc4)O[C@H]2CO3)no1 | 14 µM |
| COc1ccc(S(=O)(=O)N2CCCCN3[C@H](CO)[C@H](c4ccc(C#CCC(C)C)cc4)[C@H]3C2)cc1 | 8.14 µM and 12.7 µM |
| CCCCc1ccc(Nc2ncnc3c2cnn3-c2ccc(C)cc2C)cc1 | 11.6 µM |
| CN1C(=O)c2cc(NC(=O)Cc3cccs3)ccc2OC[C@H]2O[C@H](CC(=O)NCc3ccc(-c4ccccc4)cc3)CC[C@@H]21 | 29.4 µM |
| COc1cccc(-c2nc3c(s2)CN(S(=O)(=O)c2cc(C)ccc2C)CC3)c1 | 7.12 µM |
| O=C(NCc1cccnc1)C1CC2CN(Cc3cccc(Cl)c3)CC1O2 (centres undefined) | 4.73 µM |
| N#Cc1cccc(-c2ccc3c(c2)[C@@H]2[C@@H](CCN2S(=O)(=O)c2ccc(F)cc2)[C@@H](CO)N3)c1 | 14.5 µM |
| Cc1cc(Nc2cc(N3CCN(C)CC3)nc(Sc3ccc(NC(=O)C4CC4)cc3)n2)n[nH]1 | 18.7 µM |
| C[C@@H]1CN([C@@H](C)CO)C(=O)c2cccc(NC(=O)NC3CCCCC3)c2O[C@@H]1CN(C)Cc1ccc(C(F)(F)F)cc1 | > 39 µM (inactive) |
| COc1ccc(S(=O)(=O)N(C)C[C@H]2Oc3c(NC(=O)c4nc5ccccc5s4)cccc3C(=O)N([C@@H](C)CO)C[C@@H]2C)cc1 | 11.3 µM and 1.88 µM |

| SMILES | AC50 |
| --- | --- |
| C=C(C)[C@@H]1CC[C@]2(C(=O)O)CC[C@]3(C)[C@H](CC[C@@H]4[C@@]5(C)CC[C@H](O)C(C)(C)[C@@H]5CC[C@]43C)[C@@H]12 | 26.9 µM |
| O=C(c1ccc(F)cc1)N1CC(=O)N2[C@H](CO)[C@H](c3ccc(C#CCC4CCCC4)cc3)[C@@H]2C1 | 14.7 µM |
| CCN(CC)C(=O)C1Cn2ccnc2C2(CCN(CC(C)C)CC2)O1 (centres undefined) | > 39 µM (inactive) |
| CCCNC(=O)N1[C@H](CO)[C@@H](c2ccc(-c3ccccc3F)cc2)[C@@H]1C#N | > 39 µM (inactive) |
| Cc1ccc(CNC2=NCCNC23CCN(S(=O)(=O)c2ccc4c(c2)CCCC4)CC3)cc1 | 23 µM |
| Cc1ccccc1S(=O)(=O)N1CCCCN2[C@H](CO)[C@H](c3ccc(C#CCN(C)C)cc3)[C@H]2C1 | 33.7 µM |
| Cc1cc(C)n(C)c(=O)c1C(=O)N1CCOC(C(F)(F)F)C1 (centres undefined) | > 39 µM (inactive) |
| CCCNC(=O)N1[C@@H](C#N)[C@H](c2ccc(C#Cc3cccc(F)c3)cc2)[C@@H]1CO | 19.3 µM |
| Cc1ccccc1-c1ccc(C2[C@@H]3CN(C(=O)c4ccc(F)cc4)C[C@H]2N3)cc1 (some centres undefined) | > 42 µM (inactive) |
| N#Cc1ccc(-c2ccc3c(c2)[C@@H]2[C@@H](CCN2C(=O)C2CCCCC2)[C@H](CO)N3)cc1 | 18 µM |
| C/C=C/c1ccc([C@H]2[C@@H](CO)N3CCCCN(S(=O)(=O)c4ccc(OC)cc4)C[C@@H]23)cc1 | 32.2 µM |
| Cc1cc(C(=O)Nc2ccc3c(c2)C(=O)N(C)[C@@H]2CC[C@@H](CC(=O)NCc4ccc(-c5ccccc5)cc4)O[C@@H]2CO3)no1 | 17.9 µM |
| CS(=O)(=O)N1CC(=O)N2[C@@H](CO)[C@H](c3ccc(C#Cc4ccc(F)cc4)cc3)[C@@H]2C1 | 28 µM |
| COc1ccc(-c2ccc(C3[C@@H]4CN(C(=O)c5ccc(F)cc5)C[C@H]3N4)cc2)cc1 (some centres undefined) | 24.4 µM and 13.3 µM |
| CCN1C[C@@H](COC)[C@]2(CCN(C(=O)COc3ccccc3C)C2)C1 | > 39 µM (inactive) |
| C[C@H](O[C@H]1OCCN(Cc2n[nH]c(=O)[nH]2)[C@H]1c1ccc(F)cc1)c1cc(C(F)(F)F)cc(C(F)(F)F)c1 | 21.5 µM |
| CN(C)C(=O)c1ccc(-c2ccc3c(c2)[C@@H]2[C@@H](CCN2C(=O)C2CCCC2)[C@H](CO)N3C)cc1 | 10.9 µM |
| CCOC(=O)c1nn(Cc2ccccc2)c2c1CN(C(=O)CN1CC(c3ccccc3)CC1=O)CC2 (centres undefined) | 28.6 µM |
| O=C(Nc1cccc(F)c1)C1CC12CCN(S(=O)(=O)c1ccccc1)C2 (centres undefined) | 35.5 µM |
| O=c1[nH]c(=O)n([C@H]2C[C@H](O)[C@@H](CO)O2)cc1F | 0.346 µM |
| NCCCCCCCCCCNS(=O)(=O)c1cccc2c(Cl)cccc12 | 15.9 µM |

| SMILES | AC50 |
| --- | --- |
| Cc1cc(C(C)(C)CC(C)(C)C)ccc1OCCOCC[N+](C)(C)Cc1ccccc1 | 12.5 µM |
| N#Cc1ccc(-c2ccc3c(c2)[C@H]2[C@H](CCN2C(=O)C2CCCCC2)[C@H](CO)N3)cc1 | 16.9 µM |
| Clc1cncc(OC[C@H]2CO[C@@H]3CN(Cc4cccs4)C[C@@H]23)c1 | > 39 µM (inactive) |
| CN1CCN(C(=O)c2nn(C)c3c2CCN(S(C)(=O)=O)C3)CC1 | > 39 µM (inactive) |
| COCC1CN(C(=O)Cc2ccsc2)Cc2nccn2C1 (centres undefined) | 28.3 µM |
| C[C@H](NC(=O)C[C@H]1CC[C@@H]2[C@@H](COc3ccc(NS(=O)(=O)c4ccc(Cl)cc4)cc3C(=O)N2C)O1)c1ccccc1 | 13.7 µM and 36.1 µM |
| COc1ccc(-c2nc3c(s2)CN(S(=O)(=O)c2ccccc2C)CC3)cc1 | 8.96 µM |
| CN1[C@@H]2c3ccc(/C=C/c4ccccc4)c(=O)n3C[C@H]1[C@H](CO)[C@H]2C(=O)NC1Cc2ccccc2C1 | > 39 µM (inactive) |
| COc1cccc(NC(=O)N2CC(=O)N3[C@H](CO)[C@H](c4ccc(C#CCC5CCCC5)cc4)[C@@H]3C2)c1 | 15.9 µM |
| CN1C(=O)c2cc(NC(=O)c3cccc(F)c3)ccc2OC[C@@H]2O[C@H](CC(=O)NCC3CCCCC3)CC[C@@H]21 | > 39 µM (inactive) |
| CC(C)CC#Cc1ccc([C@@H]2[C@@H](CO)N3CCCCN(C(=O)Nc4ccccc4)C[C@H]23)cc1 | 15.9 µM |
| CC(=O)N(C)C1(c2ccccc2)CCN(CCC[C@]2(c3ccc(Cl)c(Cl)c3)CCCN(C(=O)c3ccccc3)C2)CC1 | 16.7 µM |
| Cc1ccccc1S(=O)(=O)N1CC[C@@H]2[C@H]1c1cc(-c3cccc(F)c3)ccc1N(C)[C@H]2CO | 10.7 µM |
| Cc1cccc(-c2nc(CN(c3ccccc3)S(=O)(=O)c3ccccc3)c(C)o2)c1 | 17.4 µM |
| COc1cccc(-c2ccc(C3[C@H]4CNC[C@@H]3N4Cc3nccs3)cc2)c1 (some centres undefined) | 18.7 µM |
| COc1ccccc1C(=O)Nc1ccc(-c2nc(-c3ccc(C)cc3C)co2)cc1 | 21 µM |
| N#Cc1cccc(-c2ccc3c(c2)[C@H]2[C@H](CCN2C(=O)c2ccccc2F)[C@@H](CO)N3)c1 | 15.1 µM |
| OC[C@H]1[C@@H](c2ccc(C#Cc3ccccc3F)cc2)[C@@H]2CN(CC3CCOCC3)CCCCN12 | 14.8 µM |
| Cc1cnc(N2CCC3(CCC(CC(=O)N4CC=CC4)CC3)CC2)nc1 | 22.6 µM |
| CC(C)C#Cc1ccc([C@H]2[C@@H](C#N)N(C(=O)c3cccc(F)c3)[C@H]2CO)cc1 | 26.4 µM |
| Cn1cnc(S(=O)(=O)N2CCCCN3[C@H](CO)[C@H](c4ccc(C5=CCCCC5)cc4)[C@@H]3C2)c1 | 23.4 µM and 22.7 µM |

| SMILES | AC50 |
| --- | --- |
| CN1c2ccc(C3=CCCCC3)cc2[C@@H]2[C@@H](CCN2C(=O)c2ccc3c(c2)OCO3)[C@@H]1CO | 27.5 µM |
| C/C=C/c1ccc([C@H]2[C@H](CO)N3CCCCN(S(=O)(=O)c4ccc(OC)cc4)C[C@@H]23)cc1 | 19.1 µM |
| COc1cccc(CN2CCCCN3[C@@H](CO)[C@@H](c4ccc(-c5ccccc5OC)cc4)[C@@H]3C2)c1 | 15.7 µM |
| CCN1CCN(Cc2ccc(Nc3nc(-c4ccc(OC)cc4)nc4ccccc34)cc2)CC1 | 13.5 µM |
| Cc1ccc(C)c(S(=O)(=O)N2CCC3(CC2)c2ncc(-c4cccc(F)c4)n2CCN3C)c1 | > 20 µM (inactive) |
| CCCCOc1ccc2c(=O)c(-c3cc(C(=O)OC)oc3C)c(C(F)(F)F)oc2c1C | 8.86 µM and 8.94 µM |
| COCCNC(=O)C[C@@H]1C[C@@H]2CN(Cc3ccncc3)C[C@H]2O1 | 29 µM |
| O=C(c1ccc(F)cc1)N1CC(=O)N2[C@@H](CO)[C@H](c3ccc(C#CCC4CCCC4)cc3)[C@@H]2C1 | 18.6 µM and 22.6 µM |
| COc1cccc(NC(=O)N2CC(=O)N3[C@H](C2)[C@H](c2ccc(C#CCC4CCCC4)cc2)[C@@H]3CO)c1 | 16.9 µM |
| COc1cccc(S(=O)(=O)N2CCCCN3[C@H](CO)[C@@H](c4ccc(C#CCC(C)C)cc4)[C@@H]3C2)c1 | 19 µM |
| Cc1ccc(N2CCC3(CC2)CN(CC#N)Cc2ccccc23)nn1 | > 39 µM (inactive) |
| N#Cc1ccc(-c2ccc(C3[C@@H]4CN(C(=O)C5CCCCC5)C[C@H]3N4)cc2)cc1 (some centres undefined) | 16.7 µM |
| O=C(CCCCCCNC(=O)c1cnc(N(c2ccccc2)c2ccccc2)nc1)NO | 14.8 µM |
| C/C=C/c1ccc(C2[C@@H]3CN(S(=O)(=O)c4ccccc4F)C[C@H]2N3)cc1 (some centres undefined) | 20.7 µM |
| Cn1cccc1C(=O)N1CCC2(CC1)CN(CC1CC1)C(=O)CO2 | 36.8 µM |
| CN(C)C(=O)c1ccc(-c2ccc([C@H]3[C@@H](CO)N4C(=O)CN(C(=O)CC5CC5)C[C@@H]34)cc2)cc1 | > 39 µM (inactive) |
| COc1ccccc1NC(=O)N1C[C@H](O)COC[C@@H]2O[C@H](CC(=O)N3CCC(Cc4ccccc4)CC3)CC[C@H]21 | 37.7 µM |
| COc1cccc(NC(=O)N2CC(=O)N3[C@H](CO)[C@H](c4ccc(C#CCC5CCCC5)cc4)[C@H]3C2)c1 | 13.9 µM and 16.2 µM |
| CCOc1ccc(N(Cc2nc(-c3ccc(OC)cc3)oc2C)S(=O)(=O)c2ccccc2)cc1 | 7.28 µM |
| COc1ccccc1S(=O)(=O)N1CC[C@@H]2[C@@H](CO)Nc3ccc(-c4ccc(C#N)cc4)cc3[C@@H]21 | 19.8 µM |
| COc1ccc(CN2CCO[C@H]3[C@H]2CC[C@H]3OCCCn2cccn2)cc1 | > 39 µM (inactive) |
